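96-well plates; 48 h exposure; 5 concentrations. Endpoints by linear interpolation between flanking doses. Not reached: highest tested concentration assigned. Abbreviation: GI50, concentration required for 50% inhibition of growth. TGI marks complete inhibition of growth.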
Columns and labels:
Assay in all cases: DTP human tumour cell line panel, 48 h
K-562 leukemia = test system: K-562 leukemia
MCF7 breast = test system: MCF7 breast
MOLT-4 leukemia = test system: MOLT-4 leukemia
NCI-H23 lung = test system: NCI-H23 lung
SK-MEL-2 melanoma = test system: SK-MEL-2 melanoma
SNB-19 CNS = test system: SNB-19 CNS
SR leukemia = test system: SR leukemia
TK-10 renal = test system: TK-10 renal
U251 CNS = test system: U251 CNS
UACC-257 melanoma = test system: UACC-257 melanoma

SMILES	GI50 (K-562 leukemia) [µM]	TGI (K-562 leukemia) [µM]	GI50 (MCF7 breast) [µM]	TGI (MCF7 breast) [µM]	GI50 (MOLT-4 leukemia) [µM]	TGI (MOLT-4 leukemia) [µM]	GI50 (NCI-H23 lung) [µM]	TGI (NCI-H23 lung) [µM]	GI50 (SK-MEL-2 melanoma) [µM]	TGI (SK-MEL-2 melanoma) [µM]	GI50 (SNB-19 CNS) [µM]	TGI (SNB-19 CNS) [µM]	GI50 (SR leukemia) [µM]	TGI (SR leukemia) [µM]	GI50 (TK-10 renal) [µM]	TGI (TK-10 renal) [µM]	GI50 (U251 CNS) [µM]	TGI (U251 CNS) [µM]	GI50 (UACC-257 melanoma) [µM]	TGI (UACC-257 melanoma) [µM]
O=C(Nc1ccc(-n2cc(-c3ccncc3)c(-c3ccc(O)c(Cl)c3)n2)cc1)Nc1ccc(Cl)c(C(F)(F)F)c1	3.89	49.4	3.06	13.4	3.18	16.4	3.56	22	1.97	4.52	5.06	19	3.96	21.6	2.71	9.78	2.53	10.1	7.42	30.8
c1ccc(C(NC2=NCCO2)c2ccccc2)cc1		> 10		> 10		> 10		> 10		> 10		> 10		> 10		> 10		> 10		
C/C(=N\NC(=S)N(C)C)c1nc2ncccc2[nH]1		> 100		> 100		9.86				> 100		36.1		> 100		> 100		> 100		64.5
OCCCNc1ncnc2[nH]ncc12		> 100		> 100		> 100		> 100		> 100		> 100				> 100		> 100		> 100
C/C(=N\NC(=S)NCCCCNC(=S)N/N=C(\C)c1ccccn1)c1ccccc1		> 100				> 30.5		25.3		97.3		> 87.1		2.17		40.6		15.6		9.64
CC(C)C(=O)CC(c1ccc(Cl)cc1)N1N=C(C(C)C)CC1c1ccc(Cl)cc1 (stereo not given)		> 100			22.4	83.4		> 100		> 92.2		> 100		28.2		> 100	53.3	> 100		49.5
Cc1c(Cl)nc(Cl)nc1Cl				2.6		1.38		4.64				9.09		10.8		7.16		3.18		5.67
CCCn1cc2c(SC)nc(SC)nc2n1		> 100				> 100		> 100		> 100		> 100		> 100		> 100		> 100		> 100
Cn1ccc(C(=O)NCCN(CCNC(=O)c2ccn(C)c(=O)c2O)CCNC(=O)c2ccn(C)c(=O)c2O)c(O)c1=O		> 100		> 100				> 100		> 100		> 100		> 100		> 100		> 100		> 100
CCOC(=O)C(Cc1cn(C(C)=O)c2ccccc12)P(=O)(OCC)OCC (stereo not given)		> 100				> 100		> 100		> 100		> 100		> 100		> 100		> 100		> 100
Cc1[nH]c(=O)[nH]c(=O)c1/C=C/C(=O)NC(CO)CS(=O)Cc1ccccc1 (stereo not given)		> 300		> 300		> 300		> 300		> 300		> 300						> 300		> 300
